For 1 compound, IC50 results are on record in US20220056037A1 (SPV THERAPEUTICS INC., priority 2018, published 2022).

Test in all cases: 2D cell proliferation assay (CellTiter-Blue)
Type in all cases: cell-based

In one assay the test system is PAXF MIA-Pa-Ca-2. The following applies: Homo sapiens, MIA PaCa-2, 72 h; cell line PAXF MIA-Pa-Ca-2; three days of treatment; read-out: IC (abs. IC50). How it is done: (§1) Viability of the cells was analyzed by using the CellTiter-Blue® Cell Viability Assay (Promega), and was performed according to manufacturer's instructions. Briefly, cells were harvested from exponential phase cultures (Chapter 6.6), counted and plated in 96-well flat-bottom microtiter plates at a cell density of 4,000-60,000 cells/well in a volume of 140 μl per well. After a 24 hours recovery period, 10 μL cell culture medium (six control wells/plate) or culture medium with test compound were added (Chapter 6.2). The compounds were applied at five concentrations in full-log increments up to 100 μM in duplicate. Cultures were incubated at 37° C. and 5% CO2 in a humidified atmosphere for another three days. After three days of treatment, 20 μl/well CellTiter-Blue® reagent was added. Following incubation with CellTiter-Blue® reagent for up to four hours, fluorescence (FU) was measured by using the Enspire Multimode Plate Reader (excitation λ=570 nm, emission λ=600 nm). For calculations, the mean values of duplicate/sextuplicate (untreated control) data were used.
(§2) Drug effects were expressed in terms of the percentage of the fluorescence signal, obtained by comparison of the mean signal in the treated wells with the mean signal of the untreated controls (expressed by the test-versus-control value, T/C-value [%]):
(§3) IC values are reported as relative IC50 values and absolute IC50 and IC70 values. […] The absolute IC70 value gives the concentration of the test compound that achieves T/C=30%. The relative IC50 value is the concentration of test compound that gives a response half way between the top and bottom plateau of the sigmoidal concentration-response curve (inflection point of the curve). Calculation was done by 4parameter non-linear curve fit (Oncotest Data Warehouse Software).
(§4) If an IC50 or IC70 value could not be determined within the examined dose range (because a compound was either too active or lacked activity), the lowest or highest concentration studied was used for calculation of the geometric mean value.
(§5) The overall potency of a compound was determined by the geometric mean IC50/IC70 values of all individual IC50/IC70 values. In the heatmap representation of IC50 and IC70 values, the distribution of the IC50 or IC70 values obtained for a test compound in the individual cell lines is given in relation to the geometric mean […] or IC70 value, obtained over all PDX models tested. The individual IC values range from 1/32-fold geometric mean IC (corresponding to very potent compound activity or high tumor sensitivity) to 32-fold geometric mean IC (corresponding to lack of compound activity or tumor resistance). The heatmap presentation, therefore, represents an antiproliferative “fingerprint” profile of a test compound.

Another assay relates to CXF Caco-2. The following applies: Homo sapiens, 72 h; cell line CXF Caco-2; three days of treatment; read-out: IC (abs. IC50). On the procedure: as §1, §2, §3, §4, §5
A further assay has as its system CEXF HeLa. The following applies: Homo sapiens, 72 h; cell line CEXF HeLa; three days of treatment; read-out: IC (abs. IC50). On the procedure: as §1, §2, §3, §4, §5
Another assay relates to UXF MFE-319. The following applies: 72 h; cell line UXF MFE-319; three days of treatment; read-out: IC (abs. IC50). How it is done: as §1, §2, §3, §4, §5
The test system of the next assay is LIXAH SNU-398. The following applies: Homo sapiens, 72 h; cell line LIXAH SNU-398; three days of treatment; read-out: IC (abs. IC50). On the procedure: as §1, §2, §3, §4, §5
In the next assay the test system is PRXF VCap. The following applies: Homo sapiens, 72 h; cell line PRXF VCap; three days of treatment; read-out: IC (abs. IC50). On the procedure: as §1, §2, §3, §4, §5
For a further assay, the system named is OVXF SK-OV-3. The following applies: Homo sapiens, 72 h; cell line OVXF SK-OV-3; three days of treatment; read-out: IC (abs. IC50). How it is done:
as §1, §2, §3, §4, §5

The subject of the next assay is MMXF U-266. The following applies: Homo sapiens, 72 h; cell line MMXF U-266; three days of treatment; read-out: IC (abs. IC50). How it is done: as §1, §2, §3, §4, §5
The test system of the next assay is PAXF BxPC-3. The following applies: Homo sapiens, 72 h; cell line PAXF BxPC-3; three days of treatment; read-out: IC (abs. IC50). On the procedure: as §1, §2, §3, §4, §5
The subject of another assay is MAXFLB MCF7 (ER +). The following applies: Homo sapiens, 72 h; cell line MAXFLB MCF7 (ER +); three days of treatment; read-out: IC (abs. IC50). On the procedure: as §1, §2, §3, §4, §5
A further assay has as its system LXFE Calu-1. The following applies: Homo sapiens, 72 h; cell line LXFE Calu-1; three days of treatment; read-out: IC (abs. IC50). On the procedure:
as §1, §2, §3, §4, §5

The test system of the next assay is MEXF MDA-MB-435. The following applies: Homo sapiens, 72 h; cell line MEXF MDA-MB-435; three days of treatment; read-out: IC (abs. IC50). How it is done:
as §1, §2, §3, §4, §5

A further assay deals with LEXFCM K-562. The following applies: Homo sapiens, K562, 72 h; cell line LEXFCM K-562; three days of treatment; read-out: IC (abs. IC50). How it is done:
as §1, §2, §3, §4, §5

Another assay deals with CNXF U-87 MG. The following applies: Homo sapiens, 72 h; cell line CNXF U-87 MG; three days of treatment; read-out: IC (abs. IC50). How it is done: as §1, §2, §3, §4, §5
The next assay deals with UXF EFE-184. The following applies: Homo sapiens, 72 h; cell line UXF EFE-184; three days of treatment; read-out: IC (abs. IC50). How it is done: as §1, §2, §3, §4, §5
A further assay has as its system PRXF DU-145. The following applies: Homo sapiens, 72 h; cell line PRXF DU-145; three days of treatment; read-out: IC (abs. IC50). How it is done: as §1, §2, §3, §4, §5
Another assay has as its system LIXFH HEP-3B. The following applies: Homo sapiens, Hep3B, 72 h; cell line LIXFH HEP-3B; three days of treatment; read-out: IC (abs. IC50). On the procedure: as §1, §2, §3, §4, §5
Another assay has as its system LIXFH Hep G2. The following applies: Homo sapiens, HepG2, 72 h; cell line LIXFH Hep G2; three days of treatment; read-out: IC (abs. IC50). How it is done: as §1, §2, §3, §4, §5

For orientation: IC50 means the concentration needed to halve the response being measured. Turning to `CN1CCN(c2ccc(Nc3ncc4cc(C(=O)N(C)C)n(C56CC(C5)C6)c4n3)cc2)CC1` [SPV113], the IC50 in the assay with PAXF MIA-Pa-Ca-2 is 105 nM; in the assay on CXF Caco-2, not below 100000 nM; with CEXF HeLa, 329 nM; in the assay with UXF MFE-319 it was 667 nM; with LIXAH SNU-398 it was 148 nM; with PRXF VCap it was 15 nM. For the same compound, the IC50 was 3150 nM with OVXF SK-OV-3; 655 nM in the assay on MMXF U-266; 193 nM in the assay on PAXF BxPC-3; 173 nM in the assay with MAXFLB MCF7 (ER +); 1560 nM in the assay with LXFE Calu-1; 296 nM in the assay with MEXF MDA-MB-435. In addition, the IC50 in the assay on LEXFCM K-562 came to 1150 nM; with CNXF U-87 MG, 100000 nM; in the assay with UXF EFE-184 it was 906 nM; in the assay with PRXF DU-145, 253 nM; in the assay on LIXFH HEP-3B it was 367 nM; in the assay with LIXFH Hep G2, 124 nM.
